Source: patent US11584714B2 (priority 2018, dated 2023)
Where a name gives a salt, the structure may show the parent alone. Read-outs that look alike come from different tables or passages of the source.

Key:
Assay type in all cases: biochemical
human α-thrombin = human α-thrombin (Homo sapiens (Human), UniProt P00734); assay: Enzymatic assay for thrombin (Boc-VPR-AMC substrate)
MASP-2 (CCP1-CCP2-SP) = MASP-2 (CCP1-CCP2-SP) (Homo sapiens (Human), UniProt O00187); assay: biochemical; conditions: for MASP-2 vs. thrombin selectivity: selectivity for MASP-2 inhibition versus thrombin
Sequence of MASP-2 (CCP1-CCP2-SP) (O00187 445-686): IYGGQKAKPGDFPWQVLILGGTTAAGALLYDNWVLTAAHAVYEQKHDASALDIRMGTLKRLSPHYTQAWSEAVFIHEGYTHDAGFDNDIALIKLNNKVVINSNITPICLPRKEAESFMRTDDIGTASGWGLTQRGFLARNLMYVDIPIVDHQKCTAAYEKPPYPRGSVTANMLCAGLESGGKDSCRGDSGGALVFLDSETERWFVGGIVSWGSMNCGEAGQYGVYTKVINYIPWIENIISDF

mMASP-2 = mMASP-2 (Mus musculus (Mouse), UniProt Q91WP0); assay: Enzymatic inhibition of mMASP-2; conditions: read-out: mMASP-2 Ki
Sequence of mMASP-2 (Q91WP0 20-685): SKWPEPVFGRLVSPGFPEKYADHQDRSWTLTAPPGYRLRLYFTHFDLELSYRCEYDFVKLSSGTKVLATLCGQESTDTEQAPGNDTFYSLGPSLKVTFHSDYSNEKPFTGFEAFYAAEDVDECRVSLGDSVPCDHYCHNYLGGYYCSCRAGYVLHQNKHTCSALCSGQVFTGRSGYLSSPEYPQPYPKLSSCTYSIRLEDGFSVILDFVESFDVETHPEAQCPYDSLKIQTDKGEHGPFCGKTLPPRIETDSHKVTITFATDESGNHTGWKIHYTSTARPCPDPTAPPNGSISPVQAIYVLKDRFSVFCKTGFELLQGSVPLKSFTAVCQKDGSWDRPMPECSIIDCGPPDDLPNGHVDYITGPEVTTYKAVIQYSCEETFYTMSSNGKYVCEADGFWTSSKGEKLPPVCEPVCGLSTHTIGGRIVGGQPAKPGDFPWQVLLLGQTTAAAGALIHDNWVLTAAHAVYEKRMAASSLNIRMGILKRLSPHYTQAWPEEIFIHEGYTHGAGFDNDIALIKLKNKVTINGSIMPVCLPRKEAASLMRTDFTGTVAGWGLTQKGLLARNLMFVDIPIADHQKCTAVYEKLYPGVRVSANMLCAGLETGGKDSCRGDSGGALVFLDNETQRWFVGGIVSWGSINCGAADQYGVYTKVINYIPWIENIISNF

Structure (SMILES)	Ki (human α-thrombin; read-out: Thrombin Ki) [µM]	Ki (MASP-2 (CCP1-CCP2-SP); read-out: MASP-2 Ki) [nM]	MASP-2 vs. thrombin selectivity (MASP-2 (CCP1-CCP2-SP))	Ki (mMASP-2) [nM]	Ki (MASP-2 (CCP1-CCP2-SP)) [nM]	Ki (human α-thrombin; Thrombin Ki (μM)) [µM]
Cc1nc(N)ccc1CNC(=O)[C@H](C)NC(=O)[C@H]1C[C@H](Cc2nc3cc(Cl)ccc3s2)CN1 [compound 1460, (2R,4R)—N—((S)-1-(((6-Amino-2-methylpyridin-3-yl)methyl)amino)-1-oxopropan-2-yl)-4-((5-chlorobenzo[d]thiazol-2-yl)methyl)pyrrolidine-2-carboxamide Di-trifluoroacetate salt]	> 25	< 500	**** (≥100-fold)	< 500		
C[C@H](NC(=O)[C@H]1C[C@H](c2ccccc2)CN1)C(=O)NCc1cc(Cl)c[nH]c1=O [compound 1301, (2R,4R)—N—((S)-1-(((5-Chloro-2-oxo-1,2-dihydropyridin-3-yl)methyl)amino)-1-oxopropan-2-yl)-4-phenylpyrrolidine-2-carboxamide Hydrochloride]	> 25			> 25000	2500 to 10000	
Cc1nc(N)ccc1CNC(=O)[C@H](C)NC(=O)[C@H]1C[C@H](Cc2cccc(C(=O)N3CCC3)c2)CN1 [compound 1420, (2R,4S)—N—((S)-1-(((6-Amino-2-methylpyridin-3-yl)methyl)amino)-1-oxopropan-2-yl)-4-(3-(azetidine-1-carbonyl)benzyl)pyrrolidine-2-carboxamide Di-trifluoroacetate salt]		< 500	**** (≥100-fold)	< 500		2.5 to 10
Cc1nc(N)ccc1CNC(=O)[C@H](C)NC(=O)[C@H]1C[C@@H](c2ccccc2)CCN1CCCC(=O)O [compound 1439, 4-((2R,4S)-2-(((S)-1-(((6-Amino-2-methylpyridin-3-yl)methyl)amino)-1-oxopropan-2-yl)carbamoyl)-4-phenylpiperidin-1-yl)butanoic acid Trifluoroacetate salt]	> 25	< 500		2500 to 10000		
C[C@H](NC(=O)[C@H]1C[C@H](Cc2ccc(-c3ccccc3)cc2)CN1)C(=O)NCc1cnc2[nH]cc(Cl)c2c1 [compound 1356, (2R,4S)-4-([1,1′-Biphenyl]-4-ylmethyl)-N-((S)-1-(((3-chloro-1H-pyrrolo[2,3-b]pyridin-5-yl)methyl)amino)-1-oxopropan-2-yl)pyrrolidine-2-carboxamide Di-trifluoroacetate salt]	> 25	< 500	**** (≥100-fold)	< 500		
Cc1cccc([C@H]2CCN[C@@H](C(=O)N[C@@H](C)C(=O)NCc3ccc(C(=N)N)cc3)C2)c1 [compound 1231, (2R,4S)—N—((S)-1-((4-Carbamimidoylbenzyl)amino)-1-oxopropan-2-yl)-4-(m-tolyl)piperidine-2-carboxamide]		< 500	**** (≥100-fold)	< 500		2.5 to 10
Cc1cnc(NCCc2ccccc2)c(=O)n1CC(=O)NCc1cc(Cl)ccc1-n1cnnn1 [compound 1489, N-(5-Chloro-2-(1H-tetrazol-1-yl)benzyl)-2-(6-methyl-2-oxo-3-(phenethylamino)pyrazin-1(2H)-yl)acetamide]	< 0.5	< 500	−− (<1.0-fold)	500 to 2500		
Cc1nc(N)ccc1CNC(=O)[C@H](C)NC(=O)[C@H]1C[C@H](C2(c3ccccc3)CC2)CN1 [compound 1481, (2R,4R)—N—((S)-1-(((6-Amino-2-methylpyridin-3-yl)methyl)amino)-1-oxopropan-2-yl)-4-(1-phenylcyclopropyl)pyrrolidine-2-carboxamide Di-trifluoroacetate salt]		< 500	**** (≥100-fold)	< 500		2.5 to 10
C[C@H](NC(=O)[C@H]1C[C@H](c2ccccc2)CN1)C(=O)NCc1ccn2ccnc2c1 [compound 1366, (2R,4R)—N—((S)-1-((Imidazo[1,2-a]pyridin-7-ylmethyl)amino)-1-oxopropan-2-yl)-4-phenylpyrrolidine-2-carboxamide Dihydrochloride]	> 25			2500 to 10000	2500 to 10000	
C[C@H](NC(=O)[C@H]1C[C@H](Cc2ccc3ccccc3c2)CN1)C(=O)NCc1cc(Cl)ccc1-n1cnnn1 [compound 1385, (2R,4S)—N—((S)-1-((5-chloro-2-(1H-tetrazol-1-yl)benzyl)amino)-1-oxopropan-2-yl)-4-(naphthalen-2-ylmethyl)pyrrolidine-2-carboxamide Trifluoroacetate salt]	< 0.5	< 500	** (≥5.0 to <25-fold)	< 500		
C[C@H](NC(=O)[C@H]1C[C@H](c2ccccc2)CN1)C(=O)NCc1cnc2sccc2c1 [compound 1471, (2R,4R)—N—((S)-1-oxo-1-((Thieno[2,3-b]pyridin-5-ylmethyl)amino)propan-2-yl)-4-phenylpyrrolidine-2-carboxamide Trifluoroacetate salt]	> 25			2500 to 10000	2500 to 10000	
C[C@H](NC(=O)[C@@H](CCc1ccccc1)NCc1ccc(C(N)=O)cc1)C(=O)NCc1ccc(C(=N)N)cc1 [compound 1268, 4-((((R)-1-(((S)-1-((4-Carbamimidoylbenzyl)amino)-1-oxopropan-2-yl)amino)-1-oxo-4-phenylbutan-2-yl)amino)methyl)benzamide]	< 0.5	< 500	* (≥1.0 to <5.0-fold)	< 500		
Cc1nc(N)ccc1CNC(=O)[C@H](C)NC(=O)[C@H]1C[C@H](Cc2ccccc2)CN1 [compound 1304, (2R,4S)—N—((S)-1-(((6-Amino-2-methylpyridin-3-yl)methyl)amino)-1-oxopropan-2-yl)-4-benzylpyrrolidine-2-carboxamide Dihydrochloride]		< 500	*** (≥25 to <100-fold)	500 to 2500		0.5 to 2.5
Cc1nc(N)ccc1CNC(=O)[C@H](C)NC(=O)[C@@H](CCc1ccccc1)NCc1ccc(C(=O)N2CCOCC2)cc1 [compound 1381, (R)—N—((S)-1-(((6-Amino-2-methylpyridin-3-yl)methyl)amino)-1-oxopropan-2-yl)-2-((4-(morpholine-4-carbonyl)benzyl)amino)-4-phenylbutanamide Di-trifluoroacetate salt]			** (≥5.0 to <25-fold)	10000 to 25000	500 to 2500	10 to 25
Cc1nc(N)ccc1CNC(=O)[C@H](C)NC(=O)[C@@H](CCc1ccccc1)NCCc1cccc(O)c1 [compound 1349, (R)—N—((S)-1-(((6-Amino-2-methylpyridin-3-yl)methyl)amino)-1-oxopropan-2-yl)-2-((3-hydroxyphenethyl)amino)-4-phenylbutanamide Dihydrochloride]	> 25		** (≥5.0 to <25-fold)	2500 to 10000	500 to 2500	
C[C@H](NC(=O)[C@@H](CCc1ccccc1)NCCc1ccc(O)cc1)C(=O)NCc1ccc(C(=N)N)cc1 [compound 1327, (R)—N—((S)-1-((4-Carbamimidoylbenzyl)amino)-1-oxopropan-2-yl)-2-((4-hydroxyphenethyl)amino)-4-phenylbutanamide dihydrochloride]	< 0.5	< 500	*** (≥25 to <100-fold)	< 500		
COc1ccc(-c2c[nH]c(C(=O)N[C@@H](C)C(=O)NCc3ccc(C(=N)N)cc3)c2)cc1 [compound 1238, (S)—N-(1-((4-Carbamimidoylbenzyl)amino)-1-oxopropan-2-yl)-4-(4-methoxyphenyl)-1H-pyrrole-2-carboxamide]		< 500	*** (≥25 to <100-fold)	< 500		2.5 to 10
Cc1nc(N)ccc1CNC(=O)[C@H](C)NC(=O)[C@H]1C[C@H](Cc2ccc(-c3ccc(F)cc3CN)cc2)CN1 [compound 1403, (2R,4S)—N—((S)-1-(((6-Amino-2-methylpyridin-3-yl)methyl)amino)-1-oxopropan-2-yl)-4-((2′-(aminomethyl)-4′-fluoro-[1,1′-biphenyl]-4-yl)methyl)pyrrolidine-2-carboxamide]	> 25	< 500		500 to 2500		
Cc1nc(N)ccc1CNC(=O)[C@H](C)NC(=O)[C@H]1C[C@H](Cc2ccc(C)c3ccccc23)CN1 [compound 1479, (2R,4S)—N—((S)-1-(((6-Amino-2-methylpyridin-3-yl)methyl)amino)-1-oxopropan-2-yl)-4-((4-methylnaphthalen-1-yl)methyl)pyrrolidine-2-carboxamide Dihydrochloride]		< 500	**** (≥100-fold)	< 500		10 to 25
Cc1cc(Br)cc(CNC(=O)[C@H](C)NC(=O)[C@H](N)CCc2ccccc2)c1O [compound 1355, (R)-2-amino-N—((S)-1-((5-bromo-2-hydroxy-3-methylbenzyl)amino)-1-oxopropan-2-yl)-4-phenylbutanamide Trifluoroacetate salt]	> 25	< 500		10000 to 25000		
C[C@H](NC(=O)[C@@H](CCc1ccccc1)NCc1ccc(-c2nnn[nH]2)cc1)C(=O)NCc1ccc(C(=N)N)cc1 [compound 1233, (R)-2-((4-(1H-Tetrazol-5-yl)benzyl)amino)-N—((S)-1-((4-carbamimidoylbenzyl)amino)-1-oxopropan-2-yl)-4-phenylbutanamide]		< 500	* (≥1.0 to <5.0-fold)	< 500		0.5 to 2.5
Cc1nc(N)ccc1CNC(=O)[C@H](C)NC(=O)c1cc(Cc2ccccc2)c[nH]1 [compound 1467, (S)—N-(1-(((6-Amino-2-methylpyridin-3-yl)methyl)amino)-1-oxopropan-2-yl)-4-benzyl-1H-pyrrole-2-carboxamide trifluoroacetic acid]	> 25	< 500	**** (≥100-fold)	500 to 2500		
